Read-outs that look alike come from different tables or passages of the source.
Tests used:
[1] = tested on: A7r5; assay: Inhibition of intracellular ROS induced by H2O2 (H2DCFDA) in A7r5; assay type: cell-based; settings: Rattus norvegicus
Protocol: Measurement of intracellular ROS (Reactive Oxygen Species) was determined using H2DCFDA (2',7'-dichlorodihydrofluorescein diacetate, Molecular Probes, Eugene, OR, USA). H2DCFDA is a non-polar compound that readily diffused into cells, where it is hydrolyzed by intracellular esterase to polar derivative H2DCF (2',7'-dichlorodihydrofluorescein) which can not cross the cell membrane, and thereby trapped within the cell. H2DCF is low-fluorescent, but converted to high-fluorescent DCF (2',7'-dichlorofluorescein) by intracellular ROS. Therefore, the intracellular ROS formation can be determined from the amount of converted DCF. HUVEC (Human umbilical Vascular Endothelial Cells) or A7r5 (Rat thoracic aorta smooth muscle cells) were used. HUVEC were cultured in Kaighn's F12K medium supplemented with 10% heat-inactivated FBS, 0.1 mg/ml heparin sodium, 0.03-0.05 mg/ml ECGS (Endothelial cell growth supplement) and 1% antibiotics, and A7r5 were cultured in DMEM supplemented with 10% heat inactivated FBS and 1% antibiotics. To measure the intracellular ROS, HUVEC or A7r5 were preincubated for 30 min in the presence of test compounds (10^-7-10^-5 M). Thereafter, cells were stimulated with H2O2 (10^-6 and 10^-5 M for 20 min), and then incubated in the dark for 2 hr at 37 °C in 50 mM phosphate buffer (pH 7.4) containing 5 uM H2DCFDA. The quantity of DCF fluorescence (485 nm excitation, 530 nm emission) was measured using Fluorescence plate reader (FL600, Biotek Instruments).

[2] = tested on: A7r5; assay: Inhibition of A7r5 mediated LDL oxidation (MDA); assay type: cell-based, rat; settings: Rattus norvegicus; for inhibition at 100 µM: 10^-4 M; for inhibition at 10 µM: 10^-5 M; for inhibition at 1 µM: 10^-6 M
Protocol: A7r5 (ATCC CRL-1444, smooth muscles, thoracic aorta, BDIX rat) cells were cultured in 24 well plates, using the medium of DMEM (Dulbecco's modified Eagle's Medium) supplemented with 10% heat-inactivated FBS (fetal bovine serum) and 1% antibiotics. Confluent A7r5 from plates were washed with phosphate-buffered solution, and DMEM with 10% FBS and 1% antibiotics was added in a total volume of 0.5 ml/well. Cells (2 x 10^5 cells/ml) were preincubated without and with either test compounds (10^-6 - 10^-4 M) or Tocopherol (10^-6 - 10^-4 M) at 37 °C for 30 min. Then, A7r5 alone or A7r5 plus H2O2 (10^-7 M) were exposed to LDL (100 ug/ml) for 24 hr.
The inhibitory effect of the test compounds against the lipid peroxidation was evaluated by calculating MDA reduction rate of the test compounds compared with that of the control group same as the above example 5 (2).

[3] = tested on: diabetic rats; assay: Effects on MNCV (motor nerve conduction velocity) in diabetic rats; assay type: in vivo; design: MNCV (sec): unit not given here; settings: 30 mg/Kg, orally once a day
Protocol: Diabetes was induced with i.p. (intra peritoneum) injection of streptozocin (65 mg/Kg) in rats, then test compounds dissolved in 2 ml of media (physiological saline: ethanol: tween 80 = 8:1:1), were orally administered once a day. Rats were anesthetized with halothane, then the sciatic nerve was exposed to measure MNCV. The nerve was stimulated at two points. The first stimulus electrode was inserted at proximal end, and second stimulating electrode was inserted at the sciatic notch. The coaxial needle electrode was inserted into interdigital muscle, then the muscle action potential induced by two point stimulation. The conduction velocity was calculated by dividing the distance between two stimulus points by the latency difference. Lipoic acid (100 mg/Kg) was used in comparison with the compound of formula 1 in recovery of impaired MNCV in diabetic rats. The recovery (%) of MNCV was calculated according to the following mathematical formula 4. [Mathematical formula 4] Recovery(%) =(MNCV of treated group - MNCV of diabetic rats)/(MNCV of normal control-MNCV of diabetic rats)x100 [formula]

[4] = A7r5 alone, LDL 100 ug/ml, 24 hr, read-out: % Inhibition LDL
[5] = A7r5 plus H2O2 (10^-7 M), read-out: % Inhibition LDL + H2O2 (10^-7M)

Compound | inhibition at 10 µM ([1]; A7r5, Conc. 10^-5 M, read-out: Inhibition (%) H2O2 (10^-6M)) [%] | inhibition at 1 µM ([1]; A7r5, Conc. 10^-6 M) [%] | inhibition at 0.1 µM ([1]; A7r5, Conc. 10^-7 M, read-out: Inhibition (%) H2O2 (10^-6M)) [%] | inhibition at 100 µM [2, 4] [%] | inhibition at 100 µM [2, 5] [%] | inhibition at 10 µM [2, 4] [%] | inhibition at 10 µM [2, 5] [%] | inhibition at 1 µM [2, 4] [%] | inhibition at 1 µM [2, 5] [%] | MNCV (sec) ([3]; streptozocin diabetic rats) | Recovery (%) ([3]; MNCV, diabetic rats)
COC(OC)[C@@]1(C)Oc2ccc([N+](=O)[O-])cc2[C@H](NC(=NC#N)NCc2ccccc2)[C@H]1O [Example 24, (2S, 3R, 4S)-N''-cyano-N-(6-nitro-3,4-dihydro-3-hydroxy-2-methyl-2-dimethoxymethyl-2H-benzopyran-4-yl)-N'-benzylguanidine] | 185 | 111 | 72 | – | – | – | – | – | – | – | –
COC(OC)[C@@]1(C)Oc2ccc(N)cc2[C@@H](NC(=NC#N)NCc2ccccc2)[C@@H]1O [Example 40, (2S, 3S, 4R)-N''-cyano-N-(6 - amino-3,4-dihydro-3-hydroxy-2-methyl-2-dimethoxymethyl-2H-benzopyran-4-yl)-N'-benzylguanidine] | – | – | – | 57.5 | 64.3 | 51.4 | 62.5 | 40.9 | 49.7 | 47.756 | 63.0
